Earlier results on one compound are cited in patent US10646533B2, “Absorption enhancer for polyphenol” (priority 2015, dated 2020).

Where two headings read alike, the source gives them in different places.

The conditions of series [1]: orally ingested, human.
The conditions of series [2]: orally ingested, rat.

As to `O=C(O[C@@H]1Cc2c(O)cc(O)cc2O[C@@H]1c1cc(O)c(O)c(O)c1)c1cc(O)c(O)c(O)c1` [epigallocatechin gallate], the “migration rate into blood” value in series [1] and in series [2] was “about 2%” throughout.
